Laboratory results published in US11339419B2, “Scavenger protein(s) for improved preservation of analyte detection sensor(s) and method(s) of use thereof” (Siemens Healthcare Diagnostics Inc., priority 2017, dated 2022).
“And” between values parts separate entries of the source, which are not always exact repeats. Identical values can stand only once.

Tested on: creatininase (BBI Solutions)
Experiment: BBI Solutions Creatininase Enzyme Absorbance with BSA and MIT
Format: biochemical
[1] = Day 0, 5 mg/mL BSA, no MIT (row of 50 ppm MIT)
[2] = Day 0, 5 mg/mL BSA, no MIT (row of 100 ppm MIT)
[3] = Day 0, 25 mg/mL BSA, no MIT (row of 50 ppm MIT)
[4] = Day 0, 25 mg/mL BSA, no MIT (row of 100 ppm MIT)
[5] = Day 0, 50 mg/mL BSA, no MIT (row of 50 ppm MIT)
[6] = Day 0, 50 mg/mL BSA, no MIT (row of 100 ppm MIT)
[7] = Day 0, 50 ppm MIT, 25 mg/mL BSA
[8] = Day 0, 50 ppm MIT, 50 mg/mL BSA
[9] = Day 4, 5 mg/mL BSA, no MIT (row of 50 ppm MIT)
[10] = Day 4, 5 mg/mL BSA, no MIT (row of 100 ppm MIT)
[11] = Day 4, 25 mg/mL BSA, no MIT (row of 50 ppm MIT)
[12] = Day 4, 25 mg/mL BSA, no MIT (row of 100 ppm MIT)
[13] = Day 4, 50 mg/mL BSA, no MIT (row of 50 ppm MIT)
[14] = Day 4, 50 mg/mL BSA, no MIT (row of 100 ppm MIT)
[15] = Day 14, 5 mg/mL BSA, no MIT (row of 50 ppm MIT)
[16] = Day 14, 5 mg/mL BSA, no MIT (row of 100 ppm MIT)
[17] = Day 14, 25 mg/mL BSA, no MIT (row of 50 ppm MIT)
[18] = Day 14, 25 mg/mL BSA, no MIT (row of 100 ppm MIT)
[19] = Day 14, 50 mg/mL BSA, no MIT (row of 50 ppm MIT)
[20] = Day 14, 50 mg/mL BSA, no MIT (row of 100 ppm MIT)

Description: Table 5-8 depict aqueous solutions comprising varying concentrations of BSA (at concentrations of 0 mg/mL, 5 mg/mL, 25 mg/mL, and 50 mg/mL), varying concentrations of MIT (at concentrations of 50 parts per million and 100 parts per million) or Proclin™ 300 (at concentrations of 0.7% and 1.4%) biocide over a particular time period (measurements were taken at days 0, 4, and 14 after exposure of the enzyme(s) to the particular aqueous solutions) and the associated enzyme absorbance measurements for creatininase (commercially offered for sale by BBI Solutions and Toyobo). Absorbance measurements of the creatininase enzyme(s) were taken via spectrophotometer for each aqueous solution (represented as columns 1-5 in Tables 5-8—column 6 is a blank), the absorbance being directly proportional to the enzyme activity being measured-which for Tables 5-8 is creatininase enzyme activity. Accordingly, the higher the absorbance measurement, the higher the enzyme activity of creatininase. Columns 7-11 represent five replicate readings in which the solution only contains BSA (i.e., there is no biocide(s) present in the solution). In addition, the mean values, standard deviations, and coefficients of variation are all presented for the enzyme activity/absorbance of each aqueous solution. All measurements were taken at 37° C.
As depicted in Table 5, creatininase (commercially offered for sale by BBI Solutions) enzyme activity is measured against various concentrations of MIT (biocide) and BSA (scavenger protein) over a period of 14 days (with absorbance measurement taken at 0, 4, and 14 days) for five different aqueous solutions (represented as columns 1-5—column 6 is a blank).

Creatininase Enzyme Absorbance, columns 7-11 [1]: 0.717 and 0.707 and 0.75 and 0.728
MEAN (columns 7-11) [1]: 0.51
MEAN (columns 7-11) [2]: 0.56
MEAN (columns 7-11) [3]: 0.52
MEAN (columns 7-11) [4]: 0.50
MEAN (columns 7-11) [5]: 0.54
MEAN (columns 7-11) [6]: 0.48
% Bias (Day 0, 50 ppm MIT vs no MIT, 5 mg/mL BSA): 6.0%
% Bias (Day 0, 50 ppm MIT vs no MIT, 25 mg/mL BSA): 4.8%
% Bias (Day 0, 50 ppm MIT vs no MIT, 50 mg/mL BSA): 3.6%
MEAN (Day 0, 50 ppm MIT, 5 mg/mL BSA): 0.54
Creatininase Enzyme Absorbance [7]: 0.751 and 0.713 and 0.818 and 0.733
MEAN [7]: 0.54
Creatininase Enzyme Absorbance [8]: 0.773
MEAN [8]: 0.56
% Bias (Day 0, 100 ppm MIT vs no MIT, 5 mg/mL BSA): 6.8%
% Bias (Day 0, 100 ppm MIT vs no MIT, 25 mg/mL BSA): 8.0%
% Bias (Day 0, 100 ppm MIT vs no MIT, 50 mg/mL BSA): 3.7%
MEAN (Day 0, 100 ppm MIT, 5 mg/mL BSA): 0.59
MEAN (Day 0, 100 ppm MIT, 25 mg/mL BSA): 0.54
MEAN (Day 0, 100 ppm MIT, 50 mg/mL BSA): 0.49
MEAN (columns 7-11) [9]: 0.71
MEAN (columns 7-11) [10]: 0.69
Creatininase Enzyme Absorbance, columns 7-11 [11]: 0.821 and 0.794 and 0.77 and 0.793
MEAN (columns 7-11) [11]: 0.59
MEAN (columns 7-11) [12]: 0.58
MEAN (columns 7-11) [13]: 0.40
MEAN (columns 7-11) [14]: 0.43
% Bias (Day 4, 50 ppm MIT vs no MIT, 5 mg/mL BSA): 3.8%
% Bias (Day 4, 50 ppm MIT vs no MIT, 25 mg/mL BSA): 4.5%
% Bias (Day 4, 50 ppm MIT vs no MIT, 50 mg/mL BSA): 14.7%
MEAN (Day 4, 50 ppm MIT, 5 mg/mL BSA): 0.73
MEAN (Day 4, 50 ppm MIT, 25 mg/mL BSA): 0.61
MEAN (Day 4, 50 ppm MIT, 50 mg/mL BSA): 0.46
% Bias (Day 4, 100 ppm MIT vs no MIT, 5 mg/mL BSA): 2.3%
% Bias (Day 4, 100 ppm MIT vs no MIT, 25 mg/mL BSA): 2.7%
% Bias (Day 4, 100 ppm MIT vs no MIT, 50 mg/mL BSA): 14.0%
MEAN (Day 4, 100 ppm MIT, 5 mg/mL BSA): 0.71
MEAN (Day 4, 100 ppm MIT, 25 mg/mL BSA): 0.60
MEAN (Day 4, 100 ppm MIT, 50 mg/mL BSA): 0.49
MEAN (columns 7-11) [15]: 0.80
Creatininase Enzyme Absorbance, columns 7-11 [16]: 1.061 and 1.054 and 1.018 and 1.051
MEAN (columns 7-11) [16]: 0.79
MEAN (columns 7-11) [17]: 0.65
MEAN (columns 7-11) [18]: 0.64
MEAN (columns 7-11) [19]: 0.47
Creatininase Enzyme Absorbance, columns 7-11 [20]: 0.74 and 0.737 and 0.713 and 0.724
MEAN (columns 7-11) [20]: 0.47
% Bias (Day 14, 50 ppm MIT vs no MIT, 5 mg/mL BSA): 1.8%
% Bias (Day 14, 50 ppm MIT vs no MIT, 25 mg/mL BSA): −0.5%
% Bias (Day 14, 50 ppm MIT vs no MIT, 50 mg/mL BSA): −2.4%
MEAN (Day 14, 50 ppm MIT, 5 mg/mL BSA): 0.81
MEAN (Day 14, 50 ppm MIT, 25 mg/mL BSA): 0.65
MEAN (Day 14, 50 ppm MIT, 50 mg/mL BSA): 0.46
% Bias (Day 14, 100 ppm MIT vs no MIT, 5 mg/mL BSA): 0.3%
% Bias (Day 14, 100 ppm MIT vs no MIT, 25 mg/mL BSA): −1.0%
% Bias (Day 14, 100 ppm MIT vs no MIT, 50 mg/mL BSA): 0.7%
MEAN (Day 14, 100 ppm MIT, 5 mg/mL BSA): 0.79
MEAN (Day 14, 100 ppm MIT, 25 mg/mL BSA): 0.64
MEAN (Day 14, 100 ppm MIT, 50 mg/mL BSA): 0.47
absorbance of the creatininase enzyme compared to samples containing 0 mg/mL of BSA (days 4 and 14, 5, 25 and 50 mg/mL BSA, with MIT): increased absorbance
creatininase absorbance, solutions 7-11 (days 4 and 14, only BSA, no MIT): increased (or at least maintained)
BSA concentration at which the creatininase absorbance measurement is highest (days 4 and 14, with MIT): 5 mg/mL
Substance: bovine serum albumin [BSA]
Creatininase Enzyme Absorbance, columns 7-11 [2]: 0.767 and 0.759 and 0.781 and 0.761 and 0.773
Creatininase Enzyme Absorbance, columns 7-11 [3]: 0.736 and 0.712 and 0.709 and 0.752 and 0.746
Creatininase Enzyme Absorbance, columns 7-11 [4]: 0.688 and 0.694 and 0.72 and 0.733 and 0.705
Creatininase Enzyme Absorbance, columns 7-11 [5]: 0.759 and 0.723 and 0.742 and 0.773 and 0.777
Creatininase Enzyme Absorbance, columns 7-11 [6]: 0.661 and 0.68 and 0.708 and 0.702 and 0.686
Creatininase Enzyme Absorbance (Day 0, 50 ppm MIT, 5 mg/mL BSA): 0.774 and 0.737 and 0.726 and 0.733 and 0.74
Creatininase Enzyme Absorbance, columns 7-11 [9]: 0.95 and 0.906 and 0.917 and 0.926 and 0.911
Creatininase Enzyme Absorbance, columns 7-11 [10]: 0.927 and 0.89 and 0.906 and 0.925 and 0.892
Creatininase Enzyme Absorbance, columns 7-11 [12]: 0.793 and 0.779 and 0.783 and 0.8 and 0.814
Creatininase Enzyme Absorbance, columns 7-11 [13]: 0.621 and 0.592 and 0.597 and 0.625 and 0.622
Creatininase Enzyme Absorbance, columns 7-11 [14]: 0.647 and 0.629 and 0.631 and 0.657 and 0.637
Creatininase Enzyme Absorbance, columns 7-11 [15]: 1.062 and 1.055 and 1.027 and 1.067 and 1.069
Creatininase Enzyme Absorbance, columns 7-11 [17]: 0.931 and 0.918 and 0.882 and 0.905 and 0.92
Creatininase Enzyme Absorbance, columns 7-11 [18]: 0.91 and 0.907 and 0.879 and 0.898 and 0.905
Creatininase Enzyme Absorbance, columns 7-11 [19]: 0.745 and 0.73 and 0.711 and 0.727 and 0.732
